Structures are written as SMILES.

What all share (test): Test G Post-Emergence Protocol
What all share (format): in vivo

Test [1] relates to barnyardgrass (Echinochloa crus-galli). The conditions noted are these: Echinochloa crus-galli, post-emergence, 312 h; for pest or weed control at 15.625 g/ha: 15.625 g ai/ha, evaluated after 13 days (100=total damage to plant; 0=no damage to plant), read-out: Barnyardgrass damage rating; for pest or weed control at 62.5 g/ha: 62.5 g ai/ha, read-out: Barnyardgrass damage rating (100=total damage to plant; 0=no damage to plant); for pest or weed control at 62.5 g/ha / pest or weed control at 250 g/ha: evaluated after 13 days; for pest or weed control at 250 g/ha: 250 g ai/ha, read-out: damage to plant, Barnyardgrass (100=total damage to plant; 0=no damage to plant). Put shortly:
(§1)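 Scores run 0 (no damage) to 100 (total damage) and were taken 13 days after spraying. Plants had been raised in pots for 8 days under glasshouse control (24/16 °C, 14 h photoperiod, 65% humidity) and then treated at 15.625, 62.5 or 250 g/ha.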

Test [2] relates to corn (Zea mays). The conditions noted are these: Zea mays, post-emergence, 312 h; for plant injury at 15.625 g/ha: 15.625 g ai/ha, evaluated after 13 days (100=total damage to plant; 0=no damage to plant), read-out: Corn damage rating; for plant injury at 62.5 g/ha: 62.5 g ai/ha, read-out: Corn damage rating (100=total damage to plant; 0=no damage to plant); for plant injury at 62.5 g/ha / plant injury at 250 g/ha: evaluated after 13 days; for plant injury at 250 g/ha: 250 g ai/ha, read-out: damage to plant, Corn (100=total damage to plant; 0=no damage to plant). An outline of the steps: as §1

Test [3] deals with giant foxtail (Setaria faberi). The conditions noted are these: Setaria faberi, post-emergence, 312 h; for pest or weed control at 15.625 g/ha: 15.625 g ai/ha, evaluated after 13 days (100=total damage to plant; 0=no damage to plant), read-out: Foxtail, Giant damage rating; for pest or weed control at 62.5 g/ha: 62.5 g ai/ha, read-out: Foxtail, Giant damage rating (100=total damage to plant; 0=no damage to plant); for pest or weed control at 62.5 g/ha / pest or weed control at 250 g/ha: evaluated after 13 days; for pest or weed control at 250 g/ha: 250 g ai/ha, read-out: damage to plant, Foxtail, Giant (100=total damage to plant; 0=no damage to plant). An outline of the steps:
as §1

Test [4] concerns ivy-leaved morning glory (Ipomoea hederacea). The following applies: Ipomoea, post-emergence, 312 h; for pest or weed control at 15.625 g/ha: 15.625 g ai/ha, evaluated after 13 days (100=total damage to plant; 0=no damage to plant), read-out: Morningglory, Ivy-leaved damage rating; for pest or weed control at 62.5 g/ha: 62.5 g ai/ha, read-out: Morningglory, Ivy-leaved damage rating (100=total damage to plant; 0=no damage to plant); for pest or weed control at 62.5 g/ha / pest or weed control at 250 g/ha: evaluated after 13 days; for pest or weed control at 250 g/ha: 250 g ai/ha, read-out: damage to plant, Morningglory, Ivy-leaved (100=total damage to plant; 0=no damage to plant). An outline of the steps: as §1

Test [5] has as its system redroot pigweed (Amaranthus retroflexus). The following applies: Amaranthus retroflexus, post-emergence, 312 h; for pest or weed control at 15.625 g/ha: 15.625 g ai/ha, evaluated after 13 days (100=total damage to plant; 0=no damage to plant), read-out: Pigweed, Redroot damage rating; for pest or weed control at 62.5 g/ha: 62.5 g ai/ha, read-out: Pigweed, Redroot damage rating (100=total damage to plant; 0=no damage to plant); for pest or weed control at 62.5 g/ha / pest or weed control at 250 g/ha: evaluated after 13 days; for pest or weed control at 250 g/ha: 250 g ai/ha, read-out: damage to plant, Pigweed, Redroot (100=total damage to plant; 0=no damage to plant). Put shortly: as §1

For test [6], the system named is velvetleaf (Abutilon theophrasti). The following applies: Abutilon theophrasti, post-emergence, 312 h; for pest or weed control at 15.625 g/ha: 15.625 g ai/ha, evaluated after 13 days (100=total damage to plant; 0=no damage to plant), read-out: Velvetleaf damage rating; for pest or weed control at 62.5 g/ha: 62.5 g ai/ha, read-out: Velvetleaf damage rating (100=total damage to plant; 0=no damage to plant); for pest or weed control at 62.5 g/ha / pest or weed control at 250 g/ha: evaluated after 13 days; for pest or weed control at 250 g/ha: 250 g ai/ha, read-out: damage to plant, Velvetleaf (100=total damage to plant; 0=no damage to plant). Put shortly:
as §1

As for `CN1C[C@@H](c2ccc(C(F)(F)F)cc2)[C@H](C(=O)Nc2ccccc2)C1=O` (racemic) [Compound 1404], in test [1], the pest or weed control at 15.625 g/ha amounted to 10%, the pest or weed control at 62.5 g/ha came to 20% and the pest or weed control at 250 g/ha was determined as 40%. Moreover, in test [2], the plant injury at 15.625 g/ha was determined as 20%, the plant injury at 62.5 g/ha came to 20% and the plant injury at 250 g/ha was found to be 40%. For the same compound, in test [3], the pest or weed control at 15.625 g/ha turned out to be 0%, the pest or weed control at 62.5 g/ha was determined as 50% and the pest or weed control at 250 g/ha was determined as 70%. In addition, in test [4], the pest or weed control at 15.625 g/ha was 0%, the pest or weed control at 62.5 g/ha was 10% and the pest or weed control at 250 g/ha was 30%. Further, in test [5], the pest or weed control at 15.625 g/ha is 20%, the pest or weed control at 62.5 g/ha came out at 40% and the pest or weed control at 250 g/ha was 30%. Besides, in test [6], the pest or weed control at 15.625 g/ha stood at 10%, the pest or weed control at 62.5 g/ha amounted to 20% and the pest or weed control at 250 g/ha stood at 20%.

On to `CN1C[C@H](c2ccc3c(c2)CCO3)[C@@H](C(=O)Nc2cccc(F)c2F)C1=O` (racemic) [Compound 1499], for which, in test [1], the pest or weed control at 15.625 g/ha came to 50%, the pest or weed control at 62.5 g/ha was 60% and the pest or weed control at 250 g/ha amounted to 60%. In test [2], the plant injury at 15.625 g/ha was determined as 10%, the plant injury at 62.5 g/ha came out at 0% and the plant injury at 250 g/ha was 80%. Further, in test [3], the pest or weed control at 15.625 g/ha was determined as 60%, the pest or weed control at 62.5 g/ha worked out at 60% and the pest or weed control at 250 g/ha was 70%. Also, in test [4], the pest or weed control at 15.625 g/ha worked out at 20%, the pest or weed control at 62.5 g/ha amounted to 0% and the pest or weed control at 250 g/ha came out at 40%. Besides, in test [5], the pest or weed control at 15.625 g/ha is 0%, the pest or weed control at 62.5 g/ha was 0% and the pest or weed control at 250 g/ha was 0%. Besides, in test [6], the pest or weed control at 15.625 g/ha was determined as 0%, the pest or weed control at 62.5 g/ha worked out at 0% and the pest or weed control at 250 g/ha was 20%.

Take `CN1C[C@H](c2ccc3occc3c2)[C@@H](C(=O)Nc2cccc(F)c2F)C1=O` (racemic) [Compound 1500]: the pest or weed control at 15.625 g/ha in test [1] was found to be 10%; in test [3] it was 40%; in test [4], 0%; in test [5], 0%; in test [6] it was 0%. The pest or weed control at 62.5 g/ha came out at 60% in test [1]; 60% in test [3]; 0% in test [4]; 0% in test [5]; 0% in test [6]. Also, the pest or weed control at 250 g/ha in test [1] is 60%; in test [3] it was 60%; in test [4], 10%; in test [5] it was 0%; in test [6] it was 20%. In addition, in test [2], the plant injury at 15.625 g/ha stood at 10%. For the same compound, in test [2], the plant injury at 62.5 g/ha turned out to be 10%. In addition, in test [2], the plant injury at 250 g/ha stood at 60%.

For `Cc1c(NC(=O)[C@@H]2C(=O)N(C)C[C@H]2c2ccc(C(F)(F)F)cc2)ccc(F)c1F` (racemic) [Compound 1502], in test [1], the pest or weed control at 15.625 g/ha came to 20%, the pest or weed control at 62.5 g/ha was found to be 60% and the pest or weed control at 250 g/ha came out at 70%. Moreover, in test [2], the plant injury at 15.625 g/ha came out at 0%, the plant injury at 62.5 g/ha amounted to 30% and the plant injury at 250 g/ha was 60%. Besides, in test [3], the pest or weed control at 15.625 g/ha was 60%, the pest or weed control at 62.5 g/ha amounted to 80% and the pest or weed control at 250 g/ha worked out at 80%. Moreover, in test [4], the pest or weed control at 15.625 g/ha is 0%, the pest or weed control at 62.5 g/ha turned out to be 0% and the pest or weed control at 250 g/ha is 20%. Moreover, in test [5], the pest or weed control at 15.625 g/ha came to 20%, the pest or weed control at 62.5 g/ha stood at 30% and the pest or weed control at 250 g/ha came to 80%. In test [6], the pest or weed control at 15.625 g/ha is 0%, the pest or weed control at 62.5 g/ha amounted to 10% and the pest or weed control at 250 g/ha is 40%.

On to `Cc1ccncc1NC(=O)[C@@H]1C(=O)N(C)C[C@H]1c1ccc(C(F)(F)F)cc1` (racemic) [Compound 1505], for which, in test [1], the pest or weed control at 15.625 g/ha came to 0%, the pest or weed control at 62.5 g/ha came out at 0% and the pest or weed control at 250 g/ha was 20%. Also, in test [2], the plant injury at 15.625 g/ha was found to be 0%, the plant injury at 62.5 g/ha worked out at 10% and the plant injury at 250 g/ha is 10%. Also, in test [3], the pest or weed control at 15.625 g/ha amounted to 0%, the pest or weed control at 62.5 g/ha turned out to be 0% and the pest or weed control at 250 g/ha came to 30%. Moreover, in test [4], the pest or weed control at 15.625 g/ha came to 0%, the pest or weed control at 62.5 g/ha came out at 0% and the pest or weed control at 250 g/ha came to 10%. Moreover, in test [5], the pest or weed control at 15.625 g/ha stood at 0%, the pest or weed control at 62.5 g/ha came out at 0% and the pest or weed control at 250 g/ha was found to be 0%. In test [6], the pest or weed control at 15.625 g/ha came to 0%, the pest or weed control at 62.5 g/ha turned out to be 0% and the pest or weed control at 250 g/ha was determined as 0%.

For `CN1C[C@@H](c2ccc(C(F)(F)F)cc2)[C@H](C(=O)Nc2cc(C(F)(F)F)nn2C)C1=O` (racemic) [Compound 1510], in test [1], the pest or weed control at 15.625 g/ha came out at 0%, the pest or weed control at 62.5 g/ha worked out at 0% and the pest or weed control at 250 g/ha was 0%. Also, in test [2], the plant injury at 15.625 g/ha stood at 0%, the plant injury at 62.5 g/ha turned out to be 0% and the plant injury at 250 g/ha stood at 10%. Moreover, in test [3], the pest or weed control at 15.625 g/ha turned out to be 0%, the pest or weed control at 62.5 g/ha worked out at 0% and the pest or weed control at 250 g/ha came to 0%. Moreover, in test [4], the pest or weed control at 15.625 g/ha stood at 0%, the pest or weed control at 62.5 g/ha came to 0% and the pest or weed control at 250 g/ha was 0%. Moreover, in test [5], the pest or weed control at 15.625 g/ha was found to be 0%, the pest or weed control at 62.5 g/ha was found to be 0% and the pest or weed control at 250 g/ha is 20%. Besides, in test [6], the pest or weed control at 15.625 g/ha was 0%, the pest or weed control at 62.5 g/ha came out at 0% and the pest or weed control at 250 g/ha was 0%.

Regarding `CN1C[C@@H](c2ccc(C(F)(F)F)cc2)[C@H](C(=O)Nc2ccno2)C1=O` (racemic) [Compound 1513], in test [1], the pest or weed control at 15.625 g/ha was found to be 0%, the pest or weed control at 62.5 g/ha amounted to 0% and the pest or weed control at 250 g/ha is 0%. Moreover, in test [2], the plant injury at 15.625 g/ha is 0%, the plant injury at 62.5 g/ha came out at 0% and the plant injury at 250 g/ha was determined as 0%. For the same compound, in test [3], the pest or weed control at 15.625 g/ha worked out at 0%, the pest or weed control at 62.5 g/ha turned out to be 0% and the pest or weed control at 250 g/ha was 0%. Also, in test [4], the pest or weed control at 15.625 g/ha was found to be 0%, the pest or weed control at 62.5 g/ha came out at 0% and the pest or weed control at 250 g/ha was 0%. Moreover, in test [5], the pest or weed control at 15.625 g/ha stood at 0%, the pest or weed control at 62.5 g/ha was 0% and the pest or weed control at 250 g/ha amounted to 0%. Besides, in test [6], the pest or weed control at 15.625 g/ha was determined as 0%, the pest or weed control at 62.5 g/ha is 0% and the pest or weed control at 250 g/ha was determined as 0%.

Values taken from patent publication US12077503B2, “Substituted cyclic amides and their use as herbicides” (FMC CORPORATION, priority 2015, dated 2024).
